Laboratory results: US12098148B2, “Therapeutic compounds” (C4X Discovery Limited, priority 2018, dated 2024)
Read-outs that look alike come from different tables or passages of the source.

Key:
[1] = system: NQO1 mRNA in BEAS-2B cells; assay: Beas2B NQO1 mRNA cell based assay; parameters: species or system human; details: 24 h compound treatment, increase in NQO1 mRNA vs vehicle (0.1% DMSO), read-out: EC50
Protocol: Beas2B NQO1 mRNA Cell Based Assay
The up regulation of the NRF2 mediated gene NAD(P)H:quinone acceptor oxidoreductase 1 (NQO1) was measured using the following assay method: BEAS-2B cells (ATCC CRL-9609) were plated in 96-well clear plates at 20,000 cells/well in 75 μL of cell culture media and incubated overnight (37° C., 5% CO2). On day 2, 25 μL of compound or controls were added to the cells for 24 h. On day 3, the medium was aspirated from the plate and the Cells-to-CT™ 1-Step TaqMan® Kit (Ambion A25603) was used to perform expression analysis directly from cultured cells without RNA purification according to the manufacturer's instructions.
Briefly, cells were washed with ice cold PBS and 22.5 μL of room-temperature DNase/Lysis solution was added to the cells and incubated at room temperature for 5 minutes. To stop the reaction, 2.25 μL of stop solution was added to the cell lysate. The samples were diluted 1:5 using nuclease free water and 2.5 μL transferred into the PCR plate. Real-time PCR was performed using the C-1000 Thermal Cycler (Bio-Rad) using human beta actin as the internal control. The cDNA was amplified with a specific primer for NQO1 using the 1-step RT-PCR master mix (Ambion Cells-to-CT™ 1-Step TaqMan® Kit A25603). The primers/probes sets that were used for amplification of cDNA were obtained from TaqMan Gene Expression Assays (Applied Biosystems). The comparative CT (ΔΔCT) relative quantification method was used to calculate the relative mRNA level of the target gene NQO1 as described in the Applied Biosystems Chemistry Guide.

[2] = biological target: human KEAP1 (N-term, residues 321-609) (Homo sapiens, UniProt Q14145); assay: biochemical;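 note: fluorescence polarization competition assay of Kelch domain binding to NRF2, 12-point 1:3 dilution series from 10 µM, read after 1 h at room temperature, floor 10 nM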
human KEAP1 (N-term, residues 321-609), sequence (Q14145 321-609): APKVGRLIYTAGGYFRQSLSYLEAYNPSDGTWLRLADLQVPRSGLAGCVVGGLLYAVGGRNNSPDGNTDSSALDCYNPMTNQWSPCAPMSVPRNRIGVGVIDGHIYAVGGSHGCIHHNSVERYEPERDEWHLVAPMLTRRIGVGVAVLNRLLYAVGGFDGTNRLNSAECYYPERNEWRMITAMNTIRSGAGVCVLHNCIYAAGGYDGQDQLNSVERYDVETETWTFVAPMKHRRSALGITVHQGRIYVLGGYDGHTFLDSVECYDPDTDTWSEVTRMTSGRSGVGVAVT
Protocol: Biological Assays KEAP1 Kelch Fluorescence Polarization (FP) Assay Method
Inhibition of the Kelch domain-NRF2 interaction was determined using a fluorescence polarization-based competition assay in a black 384-well microplate. Compounds were tested at a starting concentration of 10 μM serially diluted 1:3 to generate a 12-point dose response curve on the Biomek FX robot.
After 1 h at room temperature, fluorescence polarization (excitation 470 nm/emission 530 nm) was measured using an Envision plate reader. IC50 values were determined by fitting the data to a four parameter logistic fit using XLfit or XE Runner within ActivityBase.

Row | SMILES | EC50 ([1]; Homo sapiens, BEAS-2B, 24 h) [nM] | IC50 [2] [nM] | EC50 [1] [nM]
1 | CC(Oc1ccc(Br)c2c1[C@@H](CN1Cc3ccccc3C1=O)N(C(=O)[C@@H]1CCCC[C@@H]1C(=O)O)CC2)c1cn(C(C)C)nn1 (single isomer, unassigned) [Example 46] | 60 | 37 | –
2 | CC(Oc1ccc(Br)c2c1[C@@H](CN1Cc3ccccc3C1=O)N(C(=O)[C@@H]1CCCC[C@@H]1C(=O)O)CC2)c1cn(C(C)C)nn1 (single isomer, unassigned) [Example 47] | – | 68 | 76
3 | CC1CCN(C[C@@H]2c3c(OCc4cn(C(C)C)nn4)ccc(Br)c3CCN2C(=O)[C@@H]2CCCC[C@@H]2C(=O)O)C1=O (single isomer, unassigned) [Example 73] | – | 16 | 130
4 | CC1CCN(C[C@@H]2c3c(OCc4cn(C(C)C)nn4)ccc(Br)c3CCN2C(=O)[C@@H]2CCCC[C@@H]2C(=O)O)C1=O (single isomer, unassigned) [Example 74] | – | 6.8 | 22
5 | Cn1nnc(COc2ccc(Cl)c3c2[C@@H](CN2CC(C(F)(F)F)CC2=O)N(C(=O)[C@@H]2CCCC[C@]2(C)C(=O)O)CC3)c1C(F)F (single isomer, unassigned) [Example 212] | 1.9 | 5.7 | –
6 | Cn1nnc(COc2ccc(Cl)c3c2[C@@H](CN2CC(C(F)(F)F)CC2=O)N(C(=O)[C@@H]2CCCC[C@]2(C)C(=O)O)CC3)c1C(F)F (single isomer, unassigned) [Example 213] | – | 5.2 | 2.2
7 | Cn1nnc2c1CC(Oc1ccc(Cl)c3c1[C@@H](CN1CC4(CC4)CC1=O)N(C(=O)[C@@H]1CCCC[C@]1(C)C(=O)O)CC3)C2 (single isomer, unassigned; isomer 1) [Example 215] | – | 71 | 550
8 | Cn1nnc2c1CC(Oc1ccc(Cl)c3c1[C@@H](CN1CC4(CC4)CC1=O)N(C(=O)[C@@H]1CCCC[C@]1(C)C(=O)O)CC3)C2 (single isomer, unassigned; isomer 2) [Example 216] | – | 6.4 | 110
9 | Cc1cc(C(=O)NCCOc2cccc3c2[C@@H](CN2C(=O)c4ccccc4C2=O)N(C(=O)[C@@H]2CCCC[C@@H]2C(=O)O)CC3)no1 [Example 1, (1S,2R)-2-((S)-1-((1,3-Dioxoisoindolin-2-yl)methyl)-8-(2-(5-methylisoxazole-3-carboxamido)ethoxy)-1,2,3,4-tetrahydroisoquinoline-2-carbonyl)cyclohexanecarboxylic acid] | 850 | 12 | –
10 | O=C(NCCOc1cccc2c1[C@@H](CN1C(=O)c3ccccc3C1=O)N(C(=O)[C@@H]1CCCC[C@@H]1C(=O)O)CC2)c1nc2ccccc2o1 [Example 2, (1S,2R)-2-((S)-8-(2-(Benzo[d]oxazole-2-carboxamido)ethoxy)-1-((1,3-dioxoisoindolin-2-yl)methyl)-1,2,3,4-tetrahydroisoquinoline-2-carbonyl)cyclohexane-1-carboxylic acid] | 150 | 12 | –
11 | CC(=O)N1CC[C@H](Oc2cccc3c2[C@@H](CN2C(=O)c4ccccc4C2=O)N(C(=O)[C@@H]2CCCC[C@@H]2C(=O)O)CC3)C1 [Example 3, (1S,2R)-2-((S)-8-(((S)-1-Acetylpyrrolidin-3-yl)oxy)-1-((1,3-dioxoiso-indolin-2-yl)methyl)-1,2,3,4-tetrahydroisoquinoline-2-carbonyl)cyclohexane-1-carboxylic acid] | 120 | 5.6 | –
12 | Cc1cc(C(=O)N2CC[C@H](Oc3cccc4c3[C@@H](CN3C(=O)c5ccccc5C3=O)N(C(=O)[C@@H]3CCCC[C@@H]3C(=O)O)CC4)C2)no1 [Example 4, (1S,2R)-2-((S)-1-((1,3-Dioxoisoindolin-2-yl)methyl)-8-(((S)-1-(5-methylisoxazole-3-carbonyl)pyrrolidin-3-yl)oxy)-1,2,3,4-tetrahydroisoquinoline-2-carbonyl)cyclohexane-1-carboxylic acid] | 13 | 9 | –
13 | O=C(O)[C@H]1CCCC[C@H]1C(=O)N1CCc2c(Br)ccc(O[C@H]3CCN(C(=O)c4cncs4)C3)c2[C@H]1CN1C(=O)c2ccccc2C1=O [Example 5, (1S,2R)-2-((S)-5-bromo-1-((1,3-dioxoisoindolin-2-yl)methyl)-8-(((S)-1-(thiazole-5-carbonyl)pyrrolidin-3-yl)oxy)-1,2,3,4-tetrahydroisoquinoline-2-carbonyl)cyclohexane-1-carboxylic acid] | 2.5 | 6.1 | –
14 | O=C(O)[C@H]1CCCC[C@H]1C(=O)N1CCc2cccc(O[C@H]3CCN(C(=O)c4cncs4)C3)c2[C@H]1CN1C(=O)c2ccccc2C1=O [Example 6, (1S,2R)-2-((S)-1-((1,3-dioxoisoindolin-2-yl)methyl)-8-(((S)-1-(thiazole-5-carbonyl)pyrrolidin-3-yl)oxy)-1,2,3,4-tetrahydroisoquinoline-2-carbonyl)cyclohexane-1-carboxylic acid] | 78 | 5.6 | –
15 | Cc1ncc(C(=O)N2CC[C@H](Oc3cccc4c3[C@@H](CN3C(=O)c5ccccc5C3=O)N(C(=O)[C@@H]3CCCC[C@@H]3C(=O)O)CC4)C2)s1 [Example 7, (1S,2R)-2-((S)-1-((1,3-dioxoisoindolin-2-yl)methyl)-8-(((S)-1-(2-methylthiazole-5-carbonyl)pyrrolidin-3-yl)oxy)-1,2,3,4-tetrahydroisoquinoline-2-carbonyl)cyclohexane-1-carboxylic acid] | 48 | 6.2 | –
16 | O=C(O)[C@H]1CCCC[C@H]1C(=O)N1CCc2c(Cl)ccc(OCc3noc4ccccc34)c2[C@H]1CN1CCCC1=O [Example 72, (1S,2R)-2-((S)-8-(Benzo[d]isoxazol-3-ylmethoxy)-5-chloro-1-((2-oxopyrrolidin-1-yl)methyl)-1,2,3,4-tetrahydroisoquinoline-2-carbonyl)cyclohexane-1-carboxylic acid] | 2.8 | – | –
17 | O=C1CCCN1C[C@@H]1c2c(OCc3noc4ccccc34)ccc(Cl)c2CCN1C(=O)[C@@H]1CCCC[C@@H]1c1nn[nH]n1 [Example 81, 1-(((S)-2-((1R,2S)-2-(2H-tetrazol-5-yl)cyclohexane-1-carbonyl)-8-(benzo[d]isoxazol-3-ylmethoxy)-5-chloro-1,2,3,4-tetrahydroisoquinolin-1-yl)methyl)pyrrolidin-2-one] | 260 | – | –
18 | C[C@@H]1CC(=O)N(C[C@@H]2c3c(OCc4nnn(C)c4C(F)(F)F)ccc(Cl)c3CCN2C(=O)[C@H]2CCCC[C@]2(C)C(=O)O)C1 [Example 133, (1S,2S)-2-((S)-5-chloro-1-(((R)-4-methyl-2-oxopyrrolidin-1-yl)methyl)-8((1-methyl-5-(trifluoromethyl)-1H-1,2,3-triazol-4-yl)methoxy)-1,2,3,4-tetrahydroisoquinoline-2-carbonyl)-1-methylcyclohexane-1-carboxylic acid] | 20 | – | –
19 | C[C@]1(C(=O)O)CCCC[C@H]1C(=O)N1CCc2c(Cl)cc(F)c(OCc3nnn4c3CCCC4)c2[C@H]1CN1CC2(CC2)CC1=O [Example 144, (1S,2R)-2-((S)-5-chloro-7-fluoro-1-((6-oxo-5-azaspiro[2.4]heptan-5-yl)methyl)-8-((4,5,6,7-tetrahydro-[1,2,3]triazolo[1,5-a]pyridin-3-yl)methoxy)-1,2,3,4-tetrahydroisoquinoline-2-carbonyl)-1-methylcyclohexane-1-carboxylic acid] | 0.022 | – | –
20 | Cn1nnc(COc2ccc(Cl)c3c2[C@@H](CN2CCCC2=O)N(C(=O)[C@@H]2CCCC[C@]2(C)c2nn[nH]n2)CC3)c1C(F)F [Example 151, 1-(((S)-5-chloro-8-((5-(difluoromethyl)-1-methyl-1H-1,2,3-triazol-4-yl)methoxy)-2-((1R,2S)-2-methyl-2-(2H-tetrazol-5-yl)cyclohexane-1-carbonyl)-1,2,3,4-tetrahydroisoquinolin-1-yl)methyl)pyrrolidin-2-one] | 16 | – | –
21 | Cn1nnc(COc2ccc(Cl)c3c2[C@@H](CN2CC4(CC4)CC2=O)N(C(=O)[C@@H]2CCCC[C@@H]2C(=O)O)CC3)c1C(F)F [Example 197, (1S,2R)-2-((S)-5-Chloro-8-((5-(difluoromethyl)-1-methyl-1H-1,2,3-triazol-4-yl)methoxy)-1-((6-oxo-5-azaspiro [2.4]heptan-5-yl)methyl)-1,2,3,4-tetrahydroisoquinoline-2-carbonyl) cyclohexane-1-carboxylic acid] | 0.51 | – | –
22 | Cn1nnc(COc2ccc(Cl)c3c2[C@@H](CN2CC4(CC4)CC2=O)N(C(=O)[C@@H]2CCCC[C@@H]2c2nnn[nH]2)CC3)c1C(F)F [Example 202, 5-(((S)-2-((1R,2S)-2-(1H-tetrazol-5-yl)cyclohexane-1-carbonyl)-5-chloro-8-((5-(difluoromethyl)-1-methyl-1H-1,2,3-triazol-4-yl)methoxy)-1,2,3,4-tetrahydroisoquinolin-1-yl)methyl)-5-azaspiro[2.4]heptan-6-one] | 79 | – | –
